From patent US12252459B2, “Hydrazone amide derivatives and use thereof in preparation of anti-osteoporosis drugs” (SHENZHEN CELL INSPIRE PHARMACEUTICAL DEVELOPMENT CO., LTD., priority 2019, dated 2025)

What was measured:
[1] = system: RANKL-induced osteoclast differentiation of RAW264.7 cells; experiment: Osteoclast differentiation inhibition experiment (RANKL-induced, TRAP staining); format: cell-based; conditions: for IC50: RAW264.7 cells, 100 ng/ml RANKL, 5 days, TRAP staining, osteoclasts with 3 or more nuclei counted; for Therapeutic index SI (CC50/IC50): selective inhibition constant = CC50 (RAW264.7 cytotoxicity) / IC50 (osteoclast differentiation)
Experimental: Example 33: Osteoclast Differentiation Inhibition Experiment
(§1) RAW264.7 cells were cultured in vitro using DMEM high glucose medium containing 10% fetal bovine serum at 37° C. under 5% CO2 for routine maintenance culture and passage.
(§2) S2. Compound Intervention
The logarithmic growth phase cells were collected and formulated into a cell suspension at a concentration of 2×10^4 cells/mL, and the cell suspension were added to a 96-well cell culture plate. After culturing in a carbon dioxide incubator for 24 hours, the culture medium was replaced with a medium containing 100 ng/ml RANKL and the compound at different concentrations to continue culturing for 5 days, while changing the medium containing the same RANKL concentration and compound concentration every 2 days. The osteoclasts were stained with the TRAP staining method and measured on day 5. Three wells were set for each concentration, and a control group without the compound treatment was set for comparison.
The differentiated osteoclasts were stained with TRAP kit, and the number of osteoclasts fused by 3 or more nuclei was counted.
(§3) S4. Processing of Results
The inhibition rate of each compound on RANKL-induced osteoclast differentiation was calculated according to the following equation: […]
An osteoclast differentiation inhibition curve of each compound was plotted with the osteoclast differentiation inhibition rate as the ordinate and the logarithm of the compound concentration as the abscissa. According to the osteoclast differentiation inhibition rate by each compound, the half maximal inhibitory concentration IC50 was calculated, i.e., the concentration of the compound that is required for 50% osteoclast differentiation inhibition.
(§4) In addition, a selective inhibition constant of each compound was calculated according to the equation: selective inhibition constant (SI)=CC50/IC50, in order to evaluate the administration safety of each compound.
Based on the value of the selective index SI=CC50/IC50, the anti-osteoporotic differentiation effect of the compound was evaluated according to the following criteria.

[2] = Cytotoxicity assay (MTT) on RAW264.7 cells; format: cell-based; conditions: mouse, RAW264.7 cell growth inhibition, MTT method
Experimental: Example 32: Cytotoxicity Assay of Compounds
as §1, §2
The logarithmic growth phase cells were collected and formulated into a cell suspension at a concentration of 1×10^5 cells/mL, and the cell suspension was added to a 96-well cell culture plate. After culturing in a carbon dioxide incubator for 24 hours, the culture medium was replaced with a medium containing the compound at different concentrations to continue culturing for 2 days, and the cytotoxicity was detected on day 3. The compound to be tested was prepared into solutions of different concentrations using DMSO. Three wells were set for each concentration, and a control group without the compound treatment was set for comparison. […]
as §3
The RAW264.7 cell growth inhibition rate by each compound was calculated according to the following equation: […]
A cell growth inhibition curve of each compound was plotted with the RAW264.7 cell growth inhibition rate as the ordinate and the logarithm of the compound concentration as the abscissa. According to the inhibition rate of each compound on the cells, the 50% cytotoxic concentration CC50 was calculated, i.e., the concentration of the compound that is required for 50% inhibition of cell growth.
as §4

Compound | IC50 ([1]; Mus musculus, RAW264.7, 120 h) [µM] | IC50 [1] [µM] | Therapeutic index SI (CC50/IC50) [1] | CC50 at 2 days [2] [µM]
CCOC(=O)c1sc(NC(=O)/C(=N/Nc2cccc(C(=O)O)c2)C(C)=O)nc1C [Compound 3] |  | 0.05 | 1625 | 81.2
CCOC(=O)c1sc(NC(=O)/C(=N/Nc2ccccc2O)C(C)=O)nc1C [Compound 5] | 2.45 |  | 21 | 52.6
CCOC(=O)c1sc(NC(=O)/C(=N/Nc2ccccc2CO)C(C)=O)nc1C [Compound 6] | 12.1 |  | 6 | 77.9
CCOC(=O)c1sc(NC(=O)/C(=N/Nc2cc(C)ccc2C(=O)O)C(C)=O)nc1C [Compound 8] | 3.85 |  | 15 | 57.2
CCOC(=O)c1sc(NC(=O)/C(=N/Nc2ccc(C)cc2C(=O)O)C(C)=O)nc1C [Compound 9] | 4.63 |  | 19 | 89
CCOC(=O)c1sc(NC(=O)/C(=N/Nc2c(C#N)cccc2C(=O)O)C(C)=O)nc1C [Compound 12] |  | 0.23 | 1701 | 391
CCOC(=O)c1sc(NC(=O)/C(=N/Nc2ccc(Cl)cc2C(=O)O)C(C)=O)nc1C [Compound 15] | 1.56 |  | 22 | 33.9
CCOC(=O)c1sc(NC(=O)/C(=N/Nc2ccncc2C(=O)O)C(C)=O)nc1C [Compound 16] | 22.3 |  | 20 | 451
CCOC(=O)c1sc(NC(=O)/C(=N/Nc2cc(C(=O)O)ccc2C(=O)O)C(C)=O)nc1C [Compound 19] | 10.2 |  | 20 | 202
CC(=O)/C(=N\Nc1ccccc1C(=O)O)C(=O)Nc1nc(C)cs1 [Compound 21] | 2.58 |  | 85 | 220
CC(=O)/C(=N\Nc1ccccc1C(=O)O)C(=O)Nc1nccs1 [Compound 22] | 3.66 |  | 41 | 149
CC(=O)/C(=N\Nc1ccccc1C(=O)O)C(=O)Nc1ccccc1 [Compound 24] | 11.1 |  | 7 | 75.2
CC(=O)/C(=N\Nc1ccccc1C(=O)O)C(=O)NC1CCNCC1 [Compound 26] | 8.85 |  | 7 | 65.8
CC(=O)/C(=N\Nc1ccccc1C(=O)O)C(=O)N1CCc2ccccc2C1 [Compound 27] | 9.03 |  | 15 | 135
CC(=O)/C(=N\Nc1ccccc1C(=O)O)C(=O)Nc1ccc(C#N)cn1 [Compound 29] | 3.21 |  | 37 | 119
CC(=O)/C(=N\Nc1ccccc1C(=O)O)C(=O)Nc1cccc(O)n1 [Compound 30] | 15.4 |  | 13 | 198

The next lines start with results.

IC50 ([1]; Mus musculus, RAW264.7, 120 h) [µM] | IC50 [1] [µM] | Compound | Therapeutic index SI (CC50/IC50) [1] | CC50 at 2 days [2] [µM]
1.24 |  | CCOC(=O)c1sc(NC(=O)/C(=N/Nc2ccccc2C(=O)O)C(C)=O)nc1C [Compound 1] | 50 | 62.5
0.73 |  | CCOC(=O)c1sc(NC(=O)/C(=N/Nc2ccc(C(=O)O)cc2)C(C)=O)nc1C [Compound 2] | 95 | 69.2
1.26 |  | CCOC(=O)c1sc(NC(=O)/C(=N/Nc2ccccc2C(=O)OC)C(C)=O)nc1C [Compound 4] | 65 | 82.1
0.99 |  | CCOC(=O)c1sc(NC(=O)/C(=N/Nc2c(C)cccc2C(=O)O)C(C)=O)nc1C [Compound 7] | 63 | 62.8
0.4 |  | CCOC(=O)c1sc(NC(=O)/C(=N/Nc2ccc(F)cc2C(=O)O)C(C)=O)nc1C [Compound 10] | 308 | 123
1.02 |  | CCOC(=O)c1sc(NC(=O)/C(=N/Nc2cc(F)ccc2C(=O)O)C(C)=O)nc1C [Compound 11] | 56 | 57.2
0.88 |  | CCOC(=O)c1sc(NC(=O)/C(=N/Nc2cc(C#N)ccc2C(=O)O)C(C)=O)nc1C [Compound 13] | 71 | 62.3
0.89 |  | CCOC(=O)c1sc(NC(=O)/C(=N/Nc2ccc([N+](=O)[O-])cc2C(=O)O)C(C)=O)nc1C [Compound 14] | 47 | 41.9
0.46 |  | CCOC(=O)c1sc(NC(=O)/C(=N/Nc2c(C(=O)O)cccc2C(=O)O)C(C)=O)nc1C [Compound 18] | 271 | 125
1.23 |  | CCOC(=O)c1sc(NC(=O)/C(=N/Nc2ccc(N)cc2C(=O)O)C(C)=O)nc1C [Compound 20] | 40 | 49.1
0.78 |  | CC(=O)/C(=N\Nc1ccccc1C(=O)O)C(=O)Nc1nc2ccccc2s1 [Compound 23] | 53 | 41.1
0.36 | 0.27 | CC(=O)/C(=N\Nc1ccccc1C(=O)O)C(=O)Nc1ccccn1 [Compound 25] | 301 | 81.2
0.99 |  | CC(=O)/C(=N\Nc1ccccc1C(=O)O)C(=O)N1CCOCC1 [Compound 28] | 77 | 76.2
